This note sets out measurements from patent publication US20250102494A1, “COMPOSITION FOR PREDICTING OXALIPLATIN DRUG EFFICACY, AND USE THEREOF” (SAMSUNG LIFE PUBLIC WELFARE FOUNDATION, priority 2022, published 2025).

For the assay, the system named is HCT116 cells. Nature of the assay: ATPlite cell viability after drug treatment, HCT116 cells in cell-line or organoid culture media. It is filed as cell-based. Conditions: HCT-116; for drug response, colorectal cancer cell line compared with cells under Ex1 organoid culture conditions: FIG. 2; for drug responsiveness, colorectal cancer cell line compared with organoids cultured in Ex1 and Ex2: FIG. 25. The procedure:
Advanced DMEM/F12+++ (hereinafter referred to as “Ad/DF+++”) was used to produce colorectal cancer organoids. Ad/DF+++ was refrigerated at 4° C. until use, and was used in a cold state during cell washing. Ad/DF+++ medium containing the reagents shown in Table 1 below along with Ad/DF 1× (Gibco) was prepared.
After preparing the Ad/DF+++ medium containing the above reagents, an appropriate amount of Matrigel (Corning #356231) was added so that the ratio between Matrigel and cells suspended in the Ad/DF+++ medium was 7:3. Then, the cells were plated on low attachment well plates at an appropriate density. The density and the type and number of well plates were determined according to the characteristics of each cell type. The medium was prepared according to the composition shown in Table 2 below, and the cells were cultured (expanded) until the required level was reached while the medium was replaced every 3 to 4 days.
If the organoids were expanded as needed for the experiment, the medium was carefully removed, taking care not to touch the Matrigel. The cells were separated from the Matrigel by pipetting about 20 times with 1 ml of cold Ad/DF+++. The cells in 1 to 4 wells per 6-well plate were collected in one 50 ml tube. If cells are collected from more than 4 wells into one tube, the Metrigel may not be washed properly. For this reason, the cells were placed in several tubes. Thereafter, Ad/DF+++ was poured to 20 to 50 ml of each tube, followed by centrifugation at 400 g for 3 minutes at 4° C. The cells were dissociated with 1 to 2 mL of TrypLE™ Express Enzyme (Gibco, 1264-013), transferred to low-attachment 24 well plates, and then treated with 10 μM of Y-27632. Next, the cells were cultured in a CO2 incubator for 5 minutes at 37° C. After pipetting about 20 times, whether the cells would be dissociated into single cells was checked by microscopic observation. If the cells were not dissociated into single cells, the culture under CO2 and pipetting processes were repeated. After the single cells were transferred into 15-ml tubes, Ad/DF+++ was filled to 10 to 15 ml of each tube, followed by centrifugation at 400 g at 4° C. for 3 minutes. After suspending the pellet in Ad/DF+++, the cells were counted and diluted with medium according to the required number of cells.
12 hours after seeding in Experimental Example 1-2 above, the medium was changed with the medium shown in Table 3 below, followed by culturing to produce organoids.
Four hours after the medium change, the cells were treated with oxaliplatin, 5-FU, Irinotecan, and folinic acid. Five days after drug treatment, intracellular ATP expression was determined using the ATPlite assay kit (PerkinElmer), and the data were expressed in terms of cell viability, IC50, and AUC.
As the standard for confirming that cells are sensitive to the drug, the response of the cells to the drug was assumed to be 100%, and the luminescence value of surviving cells after drug treatment was analyzed and compared with the quantified drug response value.
Based on the assumption that the factor that increases the resistance of the organoids to oxaliplatin is an activator or inhibitor that changes the phenotype, the organoids prepared by excluding some or all of activators and inhibitors as shown in Table 4 below were treated with oxaliplatin.
In order to identify the factors that reduce the resistance to oxaliplatin of the Ex2 organoid, activators or inhibitors that change the phenotype were added one by one to the Ex2 organoid composition, thus producing organoids as shown in Table 8 below. Then, it was checked whether the produced organoids had increased resistance to oxaliplatin.
On the technique in general: Cellular ATP, detected with luciferase, serves as a proxy for viable cell number.

As for `Nc1nc(=O)c2c([nH]1)NCC(CNc1ccc(C(=O)N[C@@H](CCC(=O)O)C(=O)O)cc1)N2C=O` (mixture of isomers) [folinic acid], the “drug response, colorectal cancer cell line compared with cells under Ex1 organoid culture conditions” value is given as “drug response results similar to those of the cells cultured under the organoids culture conditions”; the “drug responsiveness, colorectal cancer cell line compared with organoids cultured in Ex1 and Ex2” value is reported as “drug responses similar to the cells cultured in the organoid culture conditions”.
In the case of `O=c1[nH]cc(F)c(=O)[nH]1` [5-FU, 5-fluorouracil], the “drug response, colorectal cancer cell line compared with cells under Ex1 organoid culture conditions” value was “drug response results similar to those of the cells cultured under the organoids culture conditions”; the “drug responsiveness, colorectal cancer cell line compared with organoids cultured in Ex1 and Ex2” value is “drug responses similar to the cells cultured in the organoid culture conditions”.
The like results for `CCc1c2c(nc3ccc(OC(=O)N4CCC(N5CCCCC5)CC4)cc13)-c1cc3c(c(=O)n1C2)COC(=O)[C@]3(O)CC` [irinotecan] were, in that order, “drug response results similar to those of the cells cultured under the organoids culture conditions” and “drug responses similar to the cells cultured in the organoid culture conditions”.
